Experimental data published in patent publication US20250163038A1, “CBL-B MODULATORS AND USES THEREOF” (Nimbus Clio, Inc., priority 2021, published 2025).
Structures can show the parent of a compound that is named as a salt.

Key:
[1] = system: Jurkat (clone E6-1) cells with NFAT luciferase reporter; assay: Jurkat reporter assay (NFAT Luciferase); type: cell-based; details: Homo sapiens; Jurkat NFAT luciferase reporter cells, anti-CD3 stimulation, 6 hr; read-out: Jurkat NFAT EC50
[2] = biological target: T1, Recombinant human c-Cbl (aa 47-435) (Homo sapiens, UniProt P22681); assay: c-Cbl Biochemical Assay (TR-FRET); details: hc-Cbl Biochemical Assay (TR-FRET); read-out: TR-FRET hcCbl IC50
T1 sequence (P22681 47-435): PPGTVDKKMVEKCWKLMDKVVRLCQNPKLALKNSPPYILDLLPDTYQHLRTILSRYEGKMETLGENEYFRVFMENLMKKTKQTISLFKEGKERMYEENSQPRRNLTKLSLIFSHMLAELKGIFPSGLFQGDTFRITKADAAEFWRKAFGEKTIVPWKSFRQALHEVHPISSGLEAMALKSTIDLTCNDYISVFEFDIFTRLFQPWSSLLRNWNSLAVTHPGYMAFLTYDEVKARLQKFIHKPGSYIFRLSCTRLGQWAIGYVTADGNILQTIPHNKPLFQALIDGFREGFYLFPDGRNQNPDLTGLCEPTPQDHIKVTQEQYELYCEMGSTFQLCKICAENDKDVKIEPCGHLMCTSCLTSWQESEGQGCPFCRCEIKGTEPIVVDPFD

[3] = biological target: Recombinant human Cbl-b (aa 36-427) (Homo sapiens, UniProt Q13191); assay: Cbl-b Biochemical Assay (TR-FRET); details: read-out: TR-FRET hCbl-b IC50
Recombinant human Cbl-b (aa 36-427), sequence (Q13191 36-427): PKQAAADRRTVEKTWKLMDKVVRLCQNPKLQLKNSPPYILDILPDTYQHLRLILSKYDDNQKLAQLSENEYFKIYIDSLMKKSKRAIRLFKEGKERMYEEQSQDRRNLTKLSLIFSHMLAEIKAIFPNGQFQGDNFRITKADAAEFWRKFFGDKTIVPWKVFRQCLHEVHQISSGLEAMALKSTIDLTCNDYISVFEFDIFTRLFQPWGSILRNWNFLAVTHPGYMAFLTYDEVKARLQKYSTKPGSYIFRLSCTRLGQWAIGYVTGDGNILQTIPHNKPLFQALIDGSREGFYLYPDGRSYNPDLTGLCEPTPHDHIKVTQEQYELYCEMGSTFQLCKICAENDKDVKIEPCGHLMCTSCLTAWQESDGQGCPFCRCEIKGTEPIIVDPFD

Row | EC50 [1] [µM] | IC50 [2] [µM] | IC50 [3] [µM] | SMILES
1 | < 0.2 | < 0.2 | < 0.2 | Cn1cnnc1-c1cc(F)ccc1-c1cccc(-c2nc3cc(CN[C@@H]4CC[C@@H]4O)cc(C(F)(F)F)c3o2)c1 [DU-2, (1S,2R)-2-(((2-(4′-Fluoro-2′-(4-methyl-4H-1,2,4-triazol-3-yl)-[1,1′-biphenyl]-3-yl)-7-(trifluoromethyl)benzo[d]oxazol-5-yl)methyl)amino)cyclobutan-1-ol]
2 | < 0.2 | < 0.2 | < 0.2 | Cn1cnnc1-c1cc(F)ccc1-c1cccc(-c2nc3cc(CNCC4CCCC4)cc(C(F)(F)F)c3o2)c1 [DV-2, 1-Cyclopentyl-N-((2-(4′-fluoro-2′-(4-methyl-4H-1,2,4-triazol-3-yl)-[1,1′-biphenyl]-3-yl)-7-(trifluoromethyl)benzo[d]oxazol-5-yl)methyl)methanamine]
3 | < 0.2 | < 0.2 | < 0.2 | C[C@H](N[C@@H]1CCC[C@@H]1O)c1cc(C(F)(F)F)c2oc(-c3cccc(-c4ccc(F)cc4-c4nncn4C)c3)nc2c1 [EA-1, (1S,2R)-2-(((S)-1-(2-(4′-Fluoro-2′-(4-methyl-4H-1,2,4-triazol-3-yl)-[1,1′-biphenyl]-3-yl)-7-(trifluoromethyl)benzo[d]oxazol-5-yl)ethyl)amino)cyclopentan-1-ol]
4 | < 0.2 | < 0.2 | < 0.2 | C[C@@H](N[C@@H]1CCC[C@@H]1O)c1cc(C(F)(F)F)c2oc(-c3cccc(-c4ccc(F)cc4-c4nncn4C)c3)nc2c1 [EA-2, (1S,2R)-2-(((R)-1-(2-(4′-Fluoro-2′-(4-methyl-4H-1,2,4-triazol-3-yl)-[1,1′-biphenyl]-3-yl)-7-(trifluoromethyl)benzo[d]oxazol-5-yl)ethyl)amino)cyclopentan-1-ol]
5 | 1 to 10 | 0.2 to 1 | < 0.2 | Cn1cnnc1-c1cc(F)ccc1-c1cccc(-c2nc3cc(CN)cc(C(F)(F)F)c3o2)c1 [EB-1, (2-(4′-Fluoro-2′-(4-methyl-4H-1,2,4-triazol-3-yl)-[1,1′-biphenyl]-3-yl)-7-(trifluoromethyl)benzo[d]oxazol-5-yl)methanamine]
6 | < 0.2 | < 0.2 | < 0.2 | COCCCNCc1cc(C(F)(F)F)c2oc(-c3cccc(-c4ccc(F)cc4-c4nncn4C)c3)nc2c1 [EE-2, N-((2-(4′-Fluoro-2′-(4-methyl-4H-1,2,4-triazol-3-yl)-[1,1′-biphenyl]-3-yl)-7-(trifluoromethyl)benzo[d]oxazol-5-yl)methyl)-3-methoxypropan-1-amine]
7 | < 0.2 | < 0.2 | < 0.2 | Cn1cnnc1-c1cc(F)ccc1-c1cccc(-c2nc3cc(CN4CO[C@H]5CCC[C@H]54)cc(C(F)(F)F)c3o2)c1 [EH-1, 2-(4′-Fluoro-2′-(4-methyl-4H-1,2,4-triazol-3-yl)-[1,1′-biphenyl]-3-yl)-5-(((3aR,6aS)-tetrahydro-2H-cyclopenta[d]oxazol-3(3aH)-yl)methyl)-7-(trifluoromethyl)benzo[d]oxazole]
8 | 1 to 10 | 1 to 10 | 1 to 10 | Cn1cnnc1-c1cc(F)ccc1-c1cccc(-c2nc3ccc(CN[C@@H]4CCC[C@@H]4O)cc3s2)c1 [EK-5, (1S,2R)-2-(((2-(4′-Fluoro-2′-(4-methyl-4H-1,2,4-triazol-3-yl)-[1,1′-biphenyl]-3-yl)benzo[d]thiazol-6-yl)methyl)amino)cyclopentan-1-ol]
9 | 0.2 to 1 | < 0.2 | < 0.2 | COCCNCc1cc(OC)c2oc(-c3cccc(-c4ccc(F)cc4-c4nncn4C)c3)nc2c1 [EL-1, N-((2-(4′-Fluoro-2′-(4-methyl-4H-1,2,4-triazol-3-yl)-[1,1′-biphenyl]-3-yl)-7-methoxybenzo[d]oxazol-5-yl)methyl)-2-methoxyethan-1-amine]

The remaining lines, values behind:

Row | SMILES | EC50 [1] [µM] | IC50 [2] [µM] | IC50 [3] [µM]
10 | COc1cc(CO)cc2nc(-c3cccc(-c4ccc(F)cc4-c4nncn4C)c3)oc12 [DW-3, (2-(4′-Fluoro-2′-(4-methyl-4H-1,2,4-triazol-3-yl)-[1,1′-biphenyl]-3-yl)-7-methoxybenzo[d]oxazol-5-yl)methanol] | 10 to 50 | 1 to 10 | 1 to 10
11 | COc1cc(CN[C@@H]2CCC[C@@H]2O)cc2nc(-c3cccc(-c4ccc(F)cc4-c4nncn4C)c3)oc12 [DX-2, (1S,2R)-2-(((2-(4′-Fluoro-2′-(4-methyl-4H-1,2,4-triazol-3-yl)-[1,1′-biphenyl]-3-yl)-7-methoxybenzo[d]oxazol-5-yl)methyl)amino)cyclopentan-1-ol] | < 0.2 | < 0.2 | < 0.2
12 | Cn1cnnc1-c1cc(F)ccc1-c1cccc(-c2nc3cc(CNCC4(C#N)CCOCC4)cc(C(F)(F)F)c3o2)c1 [DY-1, 4-((((2-(4′-Fluoro-2′-(4-methyl-4H-1,2,4-triazol-3-yl)-[1,1′-biphenyl]-3-yl)-7-(trifluoromethyl)benzo[d]oxazol-5-yl)methyl)amino)methyl)tetrahydro-2H-pyran-4-carbonitrile] | 0.2 to 1 | 0.2 to 1 | < 0.2
13 | COCCNCc1ccc2oc(-c3cccc(-c4ccc(F)cc4-c4nncn4C)c3)nc2c1 [DZ-1, N-((2-(4′-Fluoro-2′-(4-methyl-4H-1,2,4-triazol-3-yl)-[1,1′-biphenyl]-3-yl)benzo[d]oxazol-5-yl)methyl)-2-methoxyethan-1-amine] | 1 to 10 | 0.2 to 1 | 0.2 to 1
14 | Cn1cnnc1-c1cc(F)ccc1-c1cccc(-c2nc3cc(CNS(C)(=O)=O)cc(C(F)(F)F)c3o2)c1 [EC-1, N-((2-(4′-Fluoro-2′-(4-methyl-4H-1,2,4-triazol-3-yl)-[1,1′-biphenyl]-3-yl)-7-(trifluoromethyl)benzo[d]oxazol-5-yl)methyl)methanesulfonamide] | 1 to 10 | 0.2 to 1 | < 0.2
15 | Cn1cnnc1-c1cc(F)ccc1-c1cccc(-c2nc3cc(CN[C@@H]4CCC[C@@H]4O)cc(F)c3o2)c1 [ED-7, (1S,2R)-2-(((7-Fluoro-2-(4′-fluoro-2′-(4-methyl-4H-1,2,4-triazol-3-yl)-[1,1′-biphenyl]-3-yl)benzo[d]oxazol-5-yl)methyl)amino)cyclopentan-1-ol] | < 0.2 | < 0.2 | < 0.2
16 | CC(NCC1(O)CCC1)c1cc(C(F)(F)F)c2oc(-c3cccc(-c4ccc(F)cc4-c4nncn4C)c3)nc2c1 (stereo not drawn) [EF-1, 1-(((1-(2-(4′-Fluoro-2′-(4-methyl-4H-1,2,4-triazol-3-yl)-[1,1′-biphenyl]-3-yl)-7-(trifluoromethyl)benzo[d]oxazol-5-yl)ethyl)amino)methyl)cyclobutan-1-ol, formate] | < 0.2 | < 0.2 | < 0.2
17 | CN(C)C(=O)CNCc1cc(C(F)(F)F)c2oc(-c3cccc(-c4ccc(F)cc4-c4nncn4C)c3)nc2c1 [EI-4, 2-(((2-(4′-Fluoro-2′-(4-methyl-4H-1,2,4-triazol-3-yl)-[1,1′-biphenyl]-3-yl)-7-(trifluoromethyl)benzo[d]oxazol-5-yl)methyl)amino)-N,N-dimethylacetamide] | 0.2 to 1 | 0.2 to 1 | < 0.2
18 | COC[C@H](C)NCc1cc(C(F)(F)F)c2oc(-c3cccc(-c4ccc(F)cc4-c4nncn4C)c3)nc2c1 [EJ-2, (S)—N-((2-(4′-Fluoro-2′-(4-methyl-4H-1,2,4-triazol-3-yl)-[1,1′-biphenyl]-3-yl)-7-(trifluoromethyl)benzo[d]oxazol-5-yl)methyl)-1-methoxypropan-2-amine] | < 0.2 | < 0.2 | < 0.2
19 | Cn1cnnc1-c1cc(F)ccc1-c1cccc(-c2nc3cc(CNCC4CCC4)cc(C(F)(F)F)c3o2)c1 [EM-2, 1-Cyclobutyl-N-((2-(4′-fluoro-2′-(4-methyl-4H-1,2,4-triazol-3-yl)-[1,1′-biphenyl]-3-yl)-7-(trifluoromethyl)benzo[d]oxazol-5-yl)methyl)methanamine] | < 0.2 | < 0.2 | < 0.2
20 | COC[C@@H](C)NCc1cc(C(F)(F)F)c2oc(-c3cccc(-c4ccc(F)cc4-c4nncn4C)c3)nc2c1 [EN-2, (R)—N-((2-(4′-Fluoro-2′-(4-methyl-4H-1,2,4-triazol-3-yl)-[1,1′-biphenyl]-3-yl)-7-(trifluoromethyl)benzo[d]oxazol-5-yl)methyl)-1-methoxypropan-2-amine] | 0.2 to 1 | 0.2 to 1 | < 0.2
21 | COCC(C)(C)NCc1cc(C(F)(F)F)c2oc(-c3cccc(-c4ccc(F)cc4-c4nncn4C)c3)nc2c1 [EO-2, N-((2-(4′-Fluoro-2′-(4-methyl-4H-1,2,4-triazol-3-yl)-[1,1′-biphenyl]-3-yl)-7-(trifluoromethyl)benzo[d]oxazol-5-yl)methyl)-1-methoxy-2-methylpropan-2-amine] | 1 to 10 | 0.2 to 1 | < 0.2
22 | CC(C)NCc1cc(C(F)(F)F)c2oc(-c3cccc(-c4ccc(F)cc4-c4nncn4C)c3)nc2c1 [EP-2, N-((2-(4′-Fluoro-2′-(4-methyl-4H-1,2,4-triazol-3-yl)-[1,1′-biphenyl]-3-yl)-7-(trifluoromethyl)benzo[d]oxazol-5-yl)methyl)propan-2-amine] | 0.2 to 1 | 0.2 to 1 | < 0.2
